Laboratory results from patent publication US4483853A, “Amino acid isomers, their production and their medicinal use” (priority 1981, dated 1984).
Like-named read-outs stand apart in the source and are kept apart here.

What was measured:
sound-induced seizures = assay: Sound-induced (audiogenic) seizures in DBA/2 mice, i.c.v. or i.p. (WR, clonus, tonus); format: in vivo; conditions: for activity (in words) / Minimum dose to suppress WR / ED50 Clonus / ED50 Tonus / ED50 WR: DBA/2 mice, i.c.v.; for Minimum dose to suppress WR: 45 minutes before sound, P < .01; for ED50 WR: wild running phase; for order of potency: congeneric series of phosphonic acid analogues, i.c.v. DBA/2 mice
Procedure: (§1) Dicarboxylic amino acids and their thio-analogues were tested as potential anticonvulsants in animal models of epilepsy by being administered intracerebroventricularly (i.c.v.) or intraperitoneally (i.p.) in mice (either DBA/2 mice showing sound-induced seizures, or Swiss S mice given a just-convulsant dose of pentylenetetrazol, s.c.) or intravenously in baboons, Papio papio, with photosensitive epilepsy. A close correlation was found between the ability of antagonists to block excitation due to NMDA (N-methyl-D-aspartic acid) and suppression of sound-induced seizures following i.c.v. injection in DBA/2 mice. […] Following systemic administration in mice 2-amino-7-phosphonoheptanoic acid was active against sound-induced seizures (0.1-0.33 mmoles/kg, i.p.) and against pentylenetetrazol seizures (1.2 mmoles/kg). It is also active against photosensitive epileptic responses in baboons (1.0 mmoles/kg, i.v.)
(i) Anticonvulsant activity of excitatory amino acid antagonists in DBA/2 mice
DBA/2 mice were chosen as being an inbred strain in which, within a critical age range, a fixed sequence of seizure response can be induced by a loud sound. Groups of DBA/2 mice (N=6 to 10), 21 to 28 days old, were injected intracerebroventricularly under light ether anesthesia with 10 μl of drug solution or phosphate buffer alone (pH 7.3). Auditory stimulation (electric bell generating 109 dB at mouse level) was applied 45 minutes later for 60 seconds or until tonic extension was observed and the incidence and timing of the phases of the seizure response were recorded. These included an initial wild running phase (WR) followed by myocolonus, tonic flexion, and extension and, frequently, respiratory arrest. Seizure response was scored as described in Eur. J. Pharmacol 59, 75 (1979), and comparisons between groups of control and drug-treated animals were made by using Fisher's exact probability test. Successive doses, with a geometric factor of 3, were tested until an adequate log dose-response curve (three to six points) could be constructed for each antagonist for each phase of the seizure response, and ED50 values were graphically determined. A rank order of anticonvulsant potency was allocated to each antagonist for comparison with iontophoretic data; O denoting no activity and X to XXXX denoting increasingly marked activity.
(§2) Studies of audiogenic seizures were performed as described in Example(i). For intraperitoneal administration the antagonist was injected with 0.1 ml of saline 45 minutes before testing. Antagonism of pentylenetetrazol (PTZ: threshold) seizures was studied in random-bred Swiss mice (Tuck T/O strain: 28 days old; 20 to 23 g). Mice in groups (N=10) received pentylenetetrazol (85 mg/kg: 0.85 percent solution in 0.9 percent sodium chloride) subcutaneously in a loose fold of skin on the back of the neck 45 minutes after intracerenroventricular or intraperitoneal administration of drug or vehicle. During the 30-minute observation period sustained rhythmic clonic jerking with tonic spasms occured in 90 to 100 percent of control mice. The incidence and timing of clonic episodes was recorded with absence of sustained clonic jerking (no episode of 5 seconds duration or longer) being defined as protection. The ED50 values and 95 percent fiducial limits were estimated by using the method of moving averages (by the method described in Biometrics 8, 249 (1952) with data from four successive dose levels.

quisqualate receptor = conditions: cited from earlier work
[1] = test system: Kainic acid-excited receptors; assay: Block of kainic acid-excited receptors; conditions: CNS receptors
[2] = test system: ibotenic acid-excited receptors; assay: Block of ibotenic acid-excited receptors; conditions: CNS receptors
[3] = test system: photosensitive epileptic responses; assay: Photosensitive epilepsy in baboons; format: in vivo, Papio papio; conditions: i.v.
Procedure: as §1

[4] = test system: pentylenetetrazol seizures; assay: Pentylenetetrazol-induced seizures in Swiss S mice; format: in vivo
Procedure: as §1, §2

[5] = test system: kainate-induced excitation; conditions: cited from earlier work
NMDA = conditions: cited from earlier work

Compound | Minimum dose to suppress WR (sound-induced seizures) [μ mole] | ED50 Clonus (sound-induced seizures) [μ mole] | ED50 Tonus (sound-induced seizures) [μ mole] | ED50 WR (sound-induced seizures) [μ mole] | order of potency (sound-induced seizures) | further results
CCOC(=O)CC[C@H](N)C(=O)OCC [Glutamic acid diethylester, reference compound] |  |  |  |  |  | activity (in words) (sound-induced seizures): inactive; quisqualate receptor antagonism (quisqualate receptor): quisqualate receptor antagonist
N[C@H](CCCCCP(=O)(O)O)C(=O)O [(-)-2-Amino-7-phosphonoheptanoic acid] | 0.0033 | 0.0008 | 0.0008 | 0.0022 |  | blocking of Kainic acid-excited receptors [1]: not a blocker of Kainic acid-excited receptors; blocking of ibotenic acid-excited receptors [2]: blocker of ibotenic acid-excited receptors
NC(CCCCP(=O)(O)O)C(=O)O (racemic) [(±)-2-Amino-6-phosphonohexanoic acid] | 0.25 | 0.14 | 0.15 | 0.17 | 2-amino-7-phosphonoheptanoate>2-amino-5-phosphonopentanoic acid>2-amino-6-phosphonohexanoic acid>2-amino-4-phosphonobutyric acid | 
NC(CCCCCP(=O)(O)O)C(=O)O (racemic) [(±)-2-Amino-7-phosphonoheptanoic acid, (±)2-amino-7-phosphonoheptanoic acid] | 0.01 |  | 0.0008 | 0.004 | 2-amino-7-phosphonoheptanoate>2-amino-5-phosphonopentanoic acid>2-amino-6-phosphonohexanoic acid>2-amino-4-phosphonobutyric acid | minimal effective dose (sound-induced seizures; Mus musculus, ip, 0.75 h, read-out: Minimum dose to suppress WR): 330 µmol/kg; ED50 (sound-induced seizures; Mus musculus, ip, read-out: ED50 Clonus): 40 µmol/kg; ED50 (sound-induced seizures; Mus musculus, ip, read-out: ED50 Tonus): 40 µmol/kg; ED50 (sound-induced seizures; Mus musculus, ip, read-out: ED50 WR): 180 µmol/kg; active against sound-induced seizures, dose (sound-induced seizures; mice, i.p.): 0.1 to 0.33 mmol/kg; active against photosensitive epileptic responses, dose [3]: 1.0 mmol/kg; ED50 ([4]; Mus musculus, ip, intraperitoneal, pentylenetetrazol 85 mg/kg s.c., read-out: ED50 V PTZ (95% fiducial limits)): 1180 µmol/kg; ED50 V PTZ (95% fiducial limits) ([4]; intracerebroventricular, pentylenetetrazol 85 mg/kg s.c.): 0.64 (0.19-2.13) μ mole; active against pentylenetetrazol seizures, dose ([4]; mice, systemic administration): 1.2 mmol/kg
N[C@H](CCC(=O)NCC(=O)O)C(=O)O [γ-D-Glutamylglycine, reference compound] | 0.1 | 0.046 | 0.054 | 0.058 |  | activity (in words) (sound-induced seizures): equipotent with 2-amino-5-phosphonoheptanoic acid; antagonism of kainate-induced excitation [5]: antagonist of both kainate and NMDA-induced excitation; antagonism of NMDA-induced excitation (NMDA): antagonist of both kainate and NMDA-induced excitation
NC(CCCP(=O)(O)O)C(=O)O (racemic) [(±)-2-Amino-5-phosphonopentanoic acid] | 0.1 | 0.022 | 0.025 | 0.046 | 2-amino-7-phosphonoheptanoate>2-amino-5-phosphonopentanoic acid>2-amino-6-phosphonohexanoic acid>2-amino-4-phosphonobutyric acid | 
NC(CCP(=O)(O)O)C(=O)O (racemic) [(±)-2-Amino-4-phosphonobutyric acid, reference compound] |  |  |  |  | 2-amino-7-phosphonoheptanoate>2-amino-5-phosphonopentanoic acid>2-amino-6-phosphonohexanoic acid>2-amino-4-phosphonobutyric acid | 
NC(CCCCCP(=O)(O)O)C(=O)O (single isomer, unassigned; (+)) [(+)-2-Amino-7-phosphonoheptanoic acid] | 0.033 | 0.0018 | 0.0018 | 0.0135 |  | 
